Test system: 356 CRISPRi constructs in E. coli ΔtolC-pore
Test: CRISPRi collection fitness screen with sub-inhibitory compound
Assay type: cell-based
Conditions: for Growth represented as mean colony biomass: 1μg/ml MAC0452936, 6ng/ml LolCDE-in-1, 250 ng/ml Vancomycin, 7 ng/ml CHIR090, n=4; for Growth, mean colony biomass (n=4): + 6ng/ml LolCDE-in-1
Source text: To that end, we screened the E. coli CRISPRi collection in the ΔtolC-pore genetic background with a sub-inhibitory concentration of MAC-0452936 and measured the fitness of all 356 CRISPRi mutants (Figure 4C and Data S4). […] To that end, we introduced either an arabinose inducible copy of lgt supplied on the pCHAP9231 plasmid[48] or the pBAD19s plasmid as a control into E. coli ΔtolC-pore and tested the potency of MAC-0452936 (Figure 4E). […] To test this hypothesis, we constructed E. coli ΔlgtΔtolC-pore with pCHAP9231[48] so that lgt expression was driven solely by arabinose from the plasmid.
For screens of the CRISPRi collection with MAC-0452936, the mobile CRISPRi collection was first conjugated into E. coli ΔtolC-pore as previously described.[30] The CRISPRi collection was then arrayed on solid agar at 1536 density using the Singer-ROTOR, such that each CRISPRi strain is arrayed in technical quadruplicate. […] The screens were conducted without CRISPRi induction, using just the 5–10% basal knockdown from the pFD152 CRISPRi plasmid. Following overnight growth, plates were imaged using high-resolution scanners (Epson Perfection v750), and colony biomass for each mutant was determined.

[1] = sub-inhibitory (¼ MIC) concentration, LB agar, basal knockdown

Fc1ccc(COc2cccc(-c3[nH]ncc3-c3ccncc3)c2)cc1 [LolCDE-in-1]
Growth represented as mean colony biomass (gRNA accA): 1.008
Growth, mean colony biomass (n=4) (gRNA aceF): 1.072
Growth, mean colony biomass (n=4) (gRNA alaS): 1.101
Growth, mean colony biomass (n=4) (gRNA argS): 1.113
Growth, mean colony biomass (n=4) (gRNA asnS): 1.091
Growth, mean colony biomass (n=4) (gRNA bamA): 1.074
Growth, mean colony biomass (n=4) (gRNA bamD): 0.9928
Growth, mean colony biomass (n=4) (gRNA bioA): 1.016
Growth, mean colony biomass (n=4) (gRNA can): 1.04
Growth represented as mean colony biomass (gRNA cca): 1
Growth represented as mean colony biomass (gRNA coaA): 1.117
Growth, mean colony biomass (n=4) (gRNA csrA): 0.5912
Growth represented as mean colony biomass (gRNA cydA): 1.002
Growth represented as mean colony biomass (gRNA cydX): 0.9564
Growth represented as mean colony biomass (gRNA dapD): 0.9627
Growth represented as mean colony biomass (gRNA dapE): 0.9407
Growth represented as mean colony biomass (gRNA der): 0.9198
Growth represented as mean colony biomass (gRNA dfp): 0.9029
Growth, mean colony biomass (n=4) (gRNA dnaC): 1.011
Growth represented as mean colony biomass (gRNA dnaE): 1.003
Growth represented as mean colony biomass (gRNA dnaN): 0.9294
Growth represented as mean colony biomass (gRNA dnaX): 0.8532
Growth, mean colony biomass (n=4) (gRNA dut): 1.113
Growth represented as mean colony biomass (gRNA eno): 1.0061
Growth represented as mean colony biomass (gRNA era): 0.9669
Growth represented as mean colony biomass (gRNA fabA): 0.9879
Growth represented as mean colony biomass (gRNA fabG): 0.9717
Growth represented as mean colony biomass (gRNA fabI): 0.9771
Growth represented as mean colony biomass (gRNA fdx): 0.998
Growth represented as mean colony biomass (gRNA fldA): 1.014
Growth, mean colony biomass (n=4) (gRNA folA): 1.074
Growth represented as mean colony biomass (gRNA folB): 1.004
Growth, mean colony biomass (n=4) (gRNA folC): 0.9924
Growth represented as mean colony biomass (gRNA folE): 1.028
Growth represented as mean colony biomass (gRNA folP): 1.013
Growth represented as mean colony biomass (gRNA frr): 0.8456
Growth, mean colony biomass (n=4) (gRNA ftsA): 0.866
Growth represented as mean colony biomass (gRNA gapA): 0.9875
Growth, mean colony biomass (n=4) (gRNA glmS): 1.023
Growth represented as mean colony biomass (gRNA glmU): 0.9948
Growth represented as mean colony biomass (gRNA gltX): 1.01
Growth, mean colony biomass (n=4) (gRNA glyA): 0.9609
Growth represented as mean colony biomass (gRNA groS): 0.8911
Growth represented as mean colony biomass (gRNA grpE): 0.9325
Growth represented as mean colony biomass (gRNA guaA): 1.005
Growth, mean colony biomass (n=4) (gRNA hemD): 1.064
Growth represented as mean colony biomass (gRNA hemG): 0.9487
Growth represented as mean colony biomass (gRNA hemH): 0.9202
Growth represented as mean colony biomass (gRNA hemL): 0.9936
Growth represented as mean colony biomass (gRNA higA): 0.9523
Growth represented as mean colony biomass (gRNA hisS): 0.9867
Growth represented as mean colony biomass (gRNA holD): 1.037
Growth represented as mean colony biomass (gRNA hscA): 1.068
Growth, mean colony biomass (n=4) (gRNA infA): 1.13
Growth represented as mean colony biomass (gRNA infC): 0.9943
Growth represented as mean colony biomass (gRNA iscU): 0.9298
Growth represented as mean colony biomass (gRNA ispB): 0.9724
Growth represented as mean colony biomass (gRNA ispF): 0.9965
Growth, mean colony biomass (n=4) (gRNA leuS): 1.148
Growth, mean colony biomass (n=4) (gRNA lexA): 0.4661
Growth represented as mean colony biomass (gRNA lolC): 0.5845
Growth, mean colony biomass (n=4) (gRNA lptA): 1.047
Growth, mean colony biomass (n=4) (gRNA lptB): 0.9337
Growth represented as mean colony biomass (gRNA lptC): 0.8997
Growth represented as mean colony biomass (gRNA lptE): 0.9982
Growth represented as mean colony biomass (gRNA lptF): 0.9678
Growth represented as mean colony biomass (gRNA lptG): 1.0135
Growth represented as mean colony biomass (gRNA lpxC): 0.9296
Growth represented as mean colony biomass (gRNA lpxD): 0.9894
Growth, mean colony biomass (n=4) (gRNA mnmA): 1.137
Growth, mean colony biomass (n=4) (gRNA mrdB): 0.9351
Growth represented as mean colony biomass (gRNA mreB): 0.9708
Growth represented as mean colony biomass (gRNA mreC): 0.8551
Growth, mean colony biomass (n=4) (gRNA msbA): 1.057
Growth, mean colony biomass (n=4) (gRNA mukF): 0.8694
Growth represented as mean colony biomass (gRNA murB): 1.046
Growth represented as mean colony biomass (gRNA murC): 0.881
Growth, mean colony biomass (n=4) (gRNA murI): 0.5015
Growth, mean colony biomass (n=4) (gRNA nadK): 1.043
Growth represented as mean colony biomass (gRNA nusB): 0.9929
Growth represented as mean colony biomass (gRNA plsB): 0.8854
Growth, mean colony biomass (n=4) (gRNA prmC): 1.031
Growth represented as mean colony biomass (gRNA proS): 1.0017
Growth, mean colony biomass (n=4) (gRNA psd): 1.234
Growth, mean colony biomass (n=4) (gRNA pssA): 0.9781
Growth, mean colony biomass (n=4) (gRNA ptsI): 1.151
Growth represented as mean colony biomass (gRNA racR): 0.9577
Growth, mean colony biomass (n=4) (gRNA rho): 1.25
Growth represented as mean colony biomass (gRNA ribA): 0.9663
Growth represented as mean colony biomass (gRNA ribC): 0.899
Growth, mean colony biomass (n=4) (gRNA ribD): 1.034
Growth represented as mean colony biomass (gRNA ribF): 0.9681
Growth represented as mean colony biomass (gRNA rimM): 1.015
Growth represented as mean colony biomass (gRNA rluD): 1.0361
Growth, mean colony biomass (n=4) (gRNA rne): 1.086
Growth represented as mean colony biomass (gRNA rpe): 1.032
Growth, mean colony biomass (n=4) (gRNA rplA): 1.044
Growth represented as mean colony biomass (gRNA rplD): 0.9769
Growth represented as mean colony biomass (gRNA rplE): 0.973
Growth represented as mean colony biomass (gRNA rplJ): 0.9047
Growth represented as mean colony biomass (gRNA rplO): 0.9645
Growth, mean colony biomass (n=4) (gRNA rplP): 1.111
Growth represented as mean colony biomass (gRNA rplQ): 1.063
Growth represented as mean colony biomass (gRNA rplS): 0.9823
Growth, mean colony biomass (n=4) (gRNA rplV): 1.159
Growth, mean colony biomass (n=4) (gRNA rplX): 1.003
Growth represented as mean colony biomass (gRNA rplY): 1.022
Growth, mean colony biomass (n=4) (gRNA rpmC): 1.247
Growth represented as mean colony biomass (gRNA rpmH): 0.9499
Growth represented as mean colony biomass (gRNA rpmI): 0.8822
Growth, mean colony biomass (n=4) (gRNA rpoC): 0.9718
Growth, mean colony biomass (n=4) (gRNA rpoE): 1.012
Growth represented as mean colony biomass (gRNA rpoH): 1.025
Growth, mean colony biomass (n=4) (gRNA rpsC): 0.9823
Growth, mean colony biomass (n=4) (gRNA rpsD): 1.397
Growth represented as mean colony biomass (gRNA rpsE): 1.159
Growth represented as mean colony biomass (gRNA rpsF): 1.092
Growth, mean colony biomass (n=4) (gRNA rpsG): 0.9387
Growth represented as mean colony biomass (gRNA rpsH): 1.028
Growth, mean colony biomass (n=4) (gRNA rpsK): 1.066
Growth, mean colony biomass (n=4) (gRNA rpsL): 0.9811
Growth, mean colony biomass (n=4) (gRNA rpsM): 1.056
Growth, mean colony biomass (n=4) (gRNA rpsR): 1.049
Growth, mean colony biomass (n=4) (gRNA rpsT): 1.1909
Growth represented as mean colony biomass (gRNA rsgA): 0.9518
Growth represented as mean colony biomass (gRNA safA): 0.9369
Growth, mean colony biomass (n=4) (gRNA secA): 1.053
Growth represented as mean colony biomass (gRNA secY): 1.019
Growth represented as mean colony biomass (gRNA serS): 1.011
Growth represented as mean colony biomass (gRNA ssb): 1.001
Growth represented as mean colony biomass (gRNA sucA): 0.955
Growth, mean colony biomass (n=4) (gRNA suhB): 0.9525
Growth represented as mean colony biomass (gRNA tilS): 0.9992
Growth represented as mean colony biomass (gRNA tonB): 0.9792
Growth represented as mean colony biomass (gRNA trmD): 0.9503
Growth represented as mean colony biomass (gRNA tsaB): 1.056
Growth represented as mean colony biomass (gRNA tsaD): 0.9679
Growth, mean colony biomass (n=4) (gRNA tsaE): 1
Growth represented as mean colony biomass (gRNA tsf): 1.027
Growth represented as mean colony biomass (gRNA tusE): 1.013
Growth represented as mean colony biomass (gRNA tyrS): 1.017
Growth represented as mean colony biomass (gRNA ubiB): 0.9814
Growth represented as mean colony biomass (gRNA ubiD): 0.9742
Growth, mean colony biomass (n=4) (gRNA waaA): 1.024
Growth represented as mean colony biomass (gRNA ydaS): 0.9646
Growth represented as mean colony biomass (gRNA ydcD): 0.9635
Growth represented as mean colony biomass (gRNA ydhL): 0.9757
Growth, mean colony biomass (n=4) (gRNA yedN): 1.025
Growth represented as mean colony biomass (gRNA yejM): 1.046
Growth represented as mean colony biomass (gRNA yffS): 1.013
Growth represented as mean colony biomass (gRNA ygeF): 0.9624
Growth, mean colony biomass (n=4) (gRNA ygeN): 1.008
Growth represented as mean colony biomass (gRNA yidC): 0.8393
Growth represented as mean colony biomass (gRNA ymfE): 0.903
Growth represented as mean colony biomass (gRNA ymiB): 0.9243
Growth, mean colony biomass (n=4) (gRNA yqeL): 1.1914
Growth represented as mean colony biomass (gRNA yqgF): 0.9509
Growth, mean colony biomass (n=4) (gRNA zipA): 1.134
growth defect of CRISPRi strains for the compound's molecular target (LolCDE complex and LpxC, respectively) [1]: strongest growth defect
growth defect of the lgt CRISPRi mutant in the presence of compound [1]: did not demonstrate a growth defect

Reference: paper PMC11456916, “A screen for cell envelope stress uncovers an inhibitor of prolipoprotein diacylglyceryl transferase, Lgt, in Escherichiacoli” (iScience, 2024)
